“Also recorded” adds a separate entry of the source.

The results in this text go back to patent publication US20220233668A1, “GLYCOPEPTIDE VACCINE” (VICTORIA LINK LTD., priority 2019, published 2022).

Test [1] concerns PbT-I liver TRM cells. Kind of test: Prime-and-trap vaccination with CpG or α-GalCer as adjuvant. Format: in vivo, C57BL/6 mice. Particulars: adjuvant with αClec9a-NVY plus rAAV-NVY; 50,000 PbT-I cells; liver day 35. The source says: The following day all mice were infected with 2.5×10^9 copies of rAAV-NVY. Spleens (A) and livers (B) were harvested from all mice 35 days later and the number of PbT-I TRM (CD69^+CD62L^low), TEM (CD69−CD62L^low) and TCM (CD69−CD62L^high) cells were enumerated by flow cytometry.
As illustrated above, prime-and-trap vaccination using CpG as an adjuvant was very effective at inducing liver TRM cells. To test whether CpG adjuvant might be substituted by α-GalCer, we compared prime-and-trap using CpG versus α-GalCer, (FIG. 3). C57BL/6 mice were injected with 50,000 naïve PbT-I T cells to track responses and were then vaccinated with the anti-Clec9A-NVY fusion protein together with either CpG or α-GalCer as adjuvant plus rAAV-NVY (SEQ ID NO: 15).

Test [2] concerns NKT cells. Briefly: NKT cell expansion and activation by NVY conjugates. Particulars: 0.135 nmol, day 3. The class given is in vivo, C57BL/6 mice. The text has this: Lymphocytes were stained with monoclonal antibodies for: CD49a (Ha31/8), NK1.1 (PK136) from BD (North Ryde, NSW, Australia), CD8a (53-6.7), KLRG1 (2F1), Ly5.1 (A20), Ly5.1 (104), CD8a (53-6.7), CD44 (IM7), Ly6C (HK1.4), TCRβ (H57-597), CXCR6 (SA051D1), CXCR3 (CXCR3-173), CX3CR1 (SA011F11), from Biolegend (Australian Biosearch, Karrinyup, WA. Australia), and CD62L (MEL-14), CD101 (Moushi101) and CD69 (H1.2F3), from eBioscience (Jomar Life Research, Scoresby, VIC, Australia). Dead cells were excluded by propidium iodide staining or far red live/dead fixable dye (ThermoFisher). In some experiments cells were stained with an α-GalCer (PBS-44—a gift from Prof. Paul Savage, Brigham-Young University, UT, USA)-loaded CD1d tetramer produced in-house at 4° C. for 30 min, washed, and further antibody staining was conducted for 10 min at 4° C. Antibodies used were for: CD3 (17A2), CD45R/B220 (RA3-6B2), NK1.1 (PK136), CD69 (H1.2F3), all from BioLegend (CA, USA). The viability dye used was DAPI (Invitrogen, NZ). Single-color positive control samples were used to adjust compensation and cells were analyzed by flow cytometry on a LSR Fortessa (BD Biosciences), or LSRII SORP using Flowjo software (Tree Star Inc.).

Test [3] relates to P. berghei sporozoites. Kind of test: P. berghei sporozoite challenge of vaccinated mice given PbT-I cells. Particulars: single vaccination; 200 P. berghei ANKA sporozoites at day 42.
Method: The remaining mice were challenged with 200 P. berghei sporozoites at day 42 and parasitemia was measured by flow cytometry from day 6-13. […] Percentage of parasites present in red blood cells at day 7 post malaria challenge. […] Number of mice that succumbed or were protected after malaria challenge.
The remaining mice in each group were challenged with 200 P. berghei sporozoites at day 73 and parasitemia was measured at day 79, 80, 81. Mice with two consecutive days of visible parasites in the blood were culled. Mice surviving challenge with low dose sporozoites were rechallenged with 3000 sporozoites. Parasitemia was measured at days 5, 6, 7, 8 and 12 post-high-dose-challenge.
As described in Example 11, 50,000 PbT-I.GFP cells were transferred into recipient C57BL/6 mice. […] Organs were harvested from mice from each group at days 21-35 post vaccination and assessed for the generation of memory T cells by flow cytometry as outlined in FIG. 5. The remaining mice per group were challenged with 200 P. berghei sporozoites at day 42 and parasitemia was measured by flow cytometry at days 6, 7, 8 and 13. […]
As described in Example 12, 50,000 PbT-I.GFP cells were transferred into recipient C57BL/6 mice. […] Organs were harvested from mice from each group at days 21 post vaccination and assessed for the generation of memory T cells by flow cytometry as outlined in FIG. 5. […]
The test system of test [4] is epitope-specific CD8+ T cell response. Kind of test: PfRPL677-85-specific response in spleen by ELISpot after peptide immunization of HHD mice. The class given is in vivo. As to conditions: peptide with anti-CD40 mAb and poly IC, spleen day 7. As to the method: HHD mice, which express human HLA-A*02:01 and lack expression of murine MHC class molecules, were immunized with […] anti-CD40 mAb+[…] poly IC+[…] of PfRPL677-85 peptide ([…]) (SEQ ID NO: 18), or no peptide. 7 days later, PfRPL677-85-specific responses were measured in the spleen by ELISpot, by restimulating with the same peptide. Data were analysed using two-way ANOVA; Number of experiments=2, number of mice=3-4.
Having characterized PBANKA 1351900 (60S ribosomal protein L6-2, putative) RPL6 as a promising antigen in P. berghei, we sought to identify potential human-relevant antigens in its P. falciparum ortholog (PF3D7 1338200, also known as PF13 0213). To this extent, we used the Immune Epitope Database (IEDB: https://www.iedb.org/) epitope prediction resource (Vita, R. et al. 2019) to search for peptides within P. falciparum RPL6 that were capable of binding HLA-A*02:01; a common allele.

On to `CCCCCCCCCCCCCCCCCCCCCCCCCC(=O)N[C@@H](CO[C@H]1O[C@H](CO)[C@H](O)[C@H](O)[C@H]1O)[C@H](O)[C@H](O)CCCCCCCCCCCCCC` [α-GalCer, N-((2S,3S,4R)-3,4-Dihydroxy-1-(((2S,3R,4S,5R,6R)-3,4,5-trihydroxy-6-(hydroxymethyl)tetrahydro-2H-pyran-2-yl)oxy)octadecan-2-yl)hexacosanamide], for which, in test [1], the “liver TRM cell numbers in prime-and-trap setting” value is reported as “gave a much poorer liver TRM cell response; also recorded: does not generate large numbers of liver TRM cells; also recorded: did not produce high numbers of liver TRM cells”. Further, the “expansion of NKT cells (numbers in liver and spleen)” value in test [2] is on record as “more efficient at expanding NKT cells than V.S.NVYLP”. For the same compound, the “activation of NKT cells (CD69, NK1.1)” value in test [2] (liver and spleen) is recorded as “more potently activated NKT cells when compared to V.S.NVYLP”. Also, the “protection after malaria challenge” value in test [3] is listed as “no mice were protected”.
Consider ILNSGLLAV, for which the “epitope-specific CD8+ T cell response” value in test [4] is “triggered an epitope-specific CD8^+ T cell response”.
